From PubChem BioAssay (NCI) come the findings set out here.

Assay in all cases: DTP human tumour cell line panel, 48 h
In test [1] the test system is NCI-H460 lung.
The test system of test [2] is MCF7 breast.
Test [3] relates to UACC-62 melanoma.
Test [4] deals with HCC-2998 colon.
Test [5] concerns A498 renal.
Test [6] relates to HL-60(TB) leukemia.
Test [7] concerns NCI-H23 lung.
For test [8], the system named is NCI-H522 lung.
For test [9], the system named is SK-MEL-5 melanoma.
Test [10] relates to OVCAR-8 ovarian.

The structures appear in SMILES notation.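 Cultured in 96-well plates, cells were exposed to test compound for 48 hours across five concentrations. GI50 is the concentration that inhibits growth by half. At the TGI there is no net growth.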 Bounds are passed on as bounds.

The GI50 is the concentration at which growth is held to half of that of the control. What is called TGI is the concentration giving total growth inhibition. High values mean less potent growth arrest, low ones more potent growth arrest. Turning to `CCC(=O)Oc1ccc(/C=N/NC(N)=S)nc1`, the GI50 in test [1] was 4.04 µM; in test [2] it was 1.88 µM; in [3], 3.43 µM; in [4], 13.6 µM; in test [5], 23.3 µM; in test [6], 2.17 µM. Moreover, the GI50 in test [7] is 2.48 µM; in test [8], 4.58 µM; in test [9] it was 3.01 µM; in [10], 3.51 µM. Further, the TGI in test [1] is 46.6 µM; in test [2], > 100 µM; in test [3], > 100 µM; in test [4], > 100 µM; in test [5], > 100 µM; in test [6] it was > 100 µM. Moreover, the concentration for total growth inhibition (TGI) in [7] was > 100 µM; in test [8] it was 76.5 µM; in [9] it was 77.2 µM; in test [10], > 100 µM.
For the molecule `COc1ccc(-c2cc(=O)c3cccnc3[nH]2)cc1`, the GI50 in [1] is 26.4 µM; in [6], 13 µM; in test [9] it was 35 µM. In addition, the TGI in test [1] was 91.4 µM; in [2], > 100 µM; in test [3], 91.2 µM; in test [4], > 100 µM; in [5], > 100 µM; in test [6], 57.1 µM. Moreover, the TGI in test [7], in [8], in [9] and in test [10] was > 100 µM throughout.
Take `O=[N+]([O-])c1ccc2nc(=S)[nH]n2c1`: the TGI in [1], in test [2], in [3], in test [4], in test [5] and in test [6] was > 100 µM throughout. The total growth inhibition concentration (TGI) in test [7], in test [8], in test [9] and in [10] was > 100 µM throughout.
As for `CN(C)c1ccc(/C=N/NC(=O)c2cnc3ccccc3c2)cc1`, the TGI in [1], in test [2], in [3], in test [4], in test [5] and in test [6] was > 100 µM throughout. Besides, the TGI in test [7], in test [8], in test [9] and in test [10] was > 100 µM each time.
Take `CN1CCN(Cc2ccc(NC(=O)c3cncc(C#Cc4ncc5ccccn45)c3)cc2C(F)(F)F)CC1`: the GI50 in test [1] is 1.02 µM; in test [2], 0.738 µM; in test [3], 3.04 µM; in [4] it was 3.37 µM; in test [5], 2.83 µM; in [6], 0.845 µM. The GI50 in [7] is 1.34 µM; in test [8] it was 1.43 µM; in test [9], 3.13 µM; in test [10], 2.21 µM. The TGI in [1] was 3.86 µM; in [2], 3.07 µM; in test [3], 6.76 µM; in [4], 6.99 µM; in test [5] it was 5.96 µM; in [6], 2.76 µM. Besides, the TGI in [7] came out at 5.75 µM; in test [8] it was 5.58 µM; in test [9] it was 6.37 µM; in test [10], 5.42 µM.
As for `COc1ccc(OC)c(/C=C/C(=O)c2ccc3cc(OC)ccc3c2)c1`, the GI50 in [1] was 10.3 µM; in test [2], 11.4 µM; in test [3], 5.52 µM; in [4], 0.795 µM; in test [5] it was 12.2 µM; in [6], 4.93 µM. In test [9], the GI50 is 6.4 µM. The TGI was > 50 µM in [1]; > 50 µM in test [2]; > 12.2 µM in [3]; 2.44 µM in test [4]; > 31.9 µM in [5]; > 39.4 µM in test [6]. The total growth inhibition concentration (TGI) is > 14.3 µM in test [7], > 14 µM in test [8], > 24.3 µM in test [9] and > 11.9 µM in test [10].
`CCCCCCCCC(=O)NCCN(CCN)C(=O)CCCCCCCC`: the TGI came out at 19.7 µM in test [1]; 17.5 µM in test [2]; 21.9 µM in [3]; 24.3 µM in test [4]; 43.8 µM in [5]; 5.32 µM in test [6]. The TGI in test [7] was 32.2 µM; in test [8], 7.21 µM; in test [9], 26.4 µM; in test [10], 26.8 µM.
Regarding `O=C1C=C(OCC=C(Cl)Cl)C(=O)c2ccccc21`, the GI50 in test [1] was 39.3 µM; in test [2], 1.61 µM; in test [3], 2.51 µM; in test [4], > 100 µM; in test [5] it was > 86.2 µM; in test [6], 1.39 µM. Further, the GI50 in test [7] is 3.63 µM; in test [8] it was 0.888 µM; in [9], 1.53 µM; in [10], 3.29 µM. Also, the TGI was > 100 µM in [1]; 3.81 µM in test [2]; 7.64 µM in [3]; > 100 µM in test [4]; > 100 µM in test [5]; > 85 µM in [7]. The concentration for total growth inhibition (TGI) in test [8] turned out to be 6.24 µM; in [9], 3.85 µM; in test [10] it was 15.8 µM.
Consider `CSc1nc(-c2cccc(NC(=O)CCl)c2)c(C#N)c(=O)n1C`, for which the GI50 in test [1] is 3.16 µM; in [2] it was 0.24 µM; in test [3], 1.5 µM; in [4], 1.96 µM; in test [5] it was 5.51 µM; in test [6] it was 1.81 µM. Further, the GI50 in [7] was 1.46 µM; in [8] it was 1.12 µM; in test [9] it was 1.33 µM; in [10] it was 2.43 µM. Also, the TGI in test [1] amounted to 11.1 µM; in test [2], 2.39 µM; in test [3], 3.73 µM; in test [4], 3.8 µM; in [5] it was 32.9 µM; in [6], 4.88 µM. Moreover, the TGI was 3.01 µM in test [7], 3.21 µM in [8], 2.74 µM in [9] and > 100 µM in [10].
